Measurements published in paper PMC12655529, “Serendipitous Hinge Modulation Hypothetically Reprograms Caerin 1.1-LC Antibacterial Mechanism and Gram-Negative Selectivity” (Pharmaceutics, 2025).
Ends that are not written are not given here.

Experiments:
[1] = tested on: Escherichia coli ATCC 8739; format: cell-based; settings: ATCC 8739
Method: (§1) The antimicrobial activities of the peptides were evaluated by determining their minimal inhibitory concentration (MIC) and minimal bactericidal concentration (MBC) values following reported protocols [20]. The tested microorganisms included seven Gram-negative bacterial strains (Escherichia coli ATCC 8739, E. coli ATCC-BAA 2340, E. coli NCTC 13846, Klebsiella pneumoniae ATCC 43816, K. pneumoniae ATCC BAA-2342, Pseudomonas aeruginosa ATCC 9027, Acinetobacter baumannii ATCC BAA-747), three Gram-positive bacterial strains (Staphylococcus aureus ATCC 6538, Enterococcus faecalis NCTC 12697, MRSA NCTC 12493, and the fungal strain Candida albicans ATCC 10231. For the assay, each bacterial strain was cultured overnight at 37 °C in 100 mL of medium in a flask. The cultures were then subcultured to reach the logarithmic growth phase and diluted to 5 × 10^5 CFU/mL. Peptide samples were serially diluted two-fold in microplates, with concentrations ranging from 128 μM to 1 μM. The diluted bacterial suspensions were mixed with the peptide solutions and incubated overnight at 37 °C. The MIC values were determined by measuring the absorbance of each well using a Synergy HT plate reader (Agilent, Cheshire, UK). For MBC determination, aliquots from wells showing no visible growth were inoculated onto agar plates to assess bacterial viability. Each experiment was repeated independently three times and conducted in three independent replicates.

[2] = tested on: E. coli ATCC BAA-2340; format: cell-based, Escherichia coli
Method: as §1

[3] = tested on: E. coli NCTC 13846; format: cell-based, Escherichia coli
Method: as §1

[4] = tested on: Klebsiella pneumoniae ATCC 43816; format: cell-based; settings: ATCC 43816
Method: as §1

[5] = tested on: K. pneumoniae ATCC BAA-2342; format: cell-based, Klebsiella pneumoniae
Method: as §1

[6] = tested on: Pseudomonas aeruginosa ATCC 9027; format: cell-based
Method: as §1

[7] = tested on: Acinetobacter baumannii ATCC BAA-747; format: cell-based; settings: ATCC BAA-747
Method: as §1

[8] = tested on: Staphylococcus aureus ATCC 6538; format: cell-based; settings: ATCC 6538
Method: as §1

[9] = tested on: Enterococcus faecalis NCTC 12697; format: cell-based; settings: NCTC 12697
Method: as §1

[10] = tested on: MRSA NCTC 12493; format: cell-based, Staphylococcus aureus
Method: as §1

[11] = tested on: horse red blood cells; experiment: Haemolysis assay; format: cell-based; settings: concentration inducing 10% haemolysis of horse erythrocytes; 4% (v/v) in PBS, 2 h, 37 °C, absorbance 570 nm; no haemolysis at maximum testing concentration (128 μM) recorded as 256 μM
Method: The peptide cytotoxicity against mammalian erythrocytes was evaluated by haemolysis assay on horse red blood cells (E&O Laboratories Ltd., Falkirk, UK). Fresh horse blood was washed three times with PBS and resuspended to a final concentration of 4% (v/v) in PBS. The diluted blood suspension was then mixed with peptide solutions at varying concentrations and incubated for 2 h at 37 °C. Red blood cell suspensions treated with 0.1% Triton X-100 and PBS were used as controls. The Triton X-100-treated suspension was the positive control (for 100% haemolysis), while the PBS-treated suspension was the blank control. Following incubation, the mixtures were centrifuged at 1000× g for 10 min to separate erythrocytes from the supernatant. The absorbance of the supernatants was detected at 570 nm. The percentage haemolysis was calculated by following the equationPercentage Haemolysis = (AbsSample − AbsBlank)/(AbsPositive − AbsBlank) × 100%

[12] = tested on: Gram-positive bacteria; experiment: Geometric mean MIC and therapeutic index, Gram-positive; format: cell-based; settings: geometric mean of MICs
[13] = tested on: Gram-negative bacteria; experiment: Geometric mean MIC and therapeutic index, Gram-negative; format: cell-based; settings: geometric mean of MICs
[14] = tested on: E. coli (ATCC-BAA 2340); format: cell-based, Escherichia coli; settings: ATCC-BAA 2340
Method: The peptide sensitivity was determined in different salt- and serum-containing environments. Bacterial strains were prepared following the MIC detection protocol described previously. To evaluate peptide sensitivity under physiological conditions, various concentrations of salt ions (150 mM NaCl, 4.5 mM KCl, 2 mM CaCl2, 1 mM MgCl2, 8 µM ZnCl2, 6 µM NH4Cl, or 4 µM FeCl3) and serum (10% FBS) were prepared in McCartney bottles prior to the addition of bacterial suspensions. The subcultured bacterial suspensions were then introduced to these modified media conditions. For MIC determination, the treated bacterial suspensions were diluted and dispensed into 96-well plates containing peptide solutions at graded concentrations. This assay allowed for the detection of potential alterations in MIC values, serving as an indicator of peptide sensitivity under different physiological conditions. All experiments were independently repeated three times, each with three replicates.

Substance | MBC, E. coli (ATCC 8739) [1] | MIC, E. coli (ATCC 8739) [1] | MBC, E. coli (ATCC BAA-2340) [2] | MIC, E. coli (ATCC BAA-2340) [2] | MBC, K. pneumoniae (ATCC 43816) [4] | MIC, K. pneumoniae (ATCC 43816) [4] | MBC, K. pneumoniae (ATCC BAA-2342) [5] | MIC, K. pneumoniae (ATCC BAA-2342) [5] | MBC, P. aeruginosa (ATCC 9027) [6] | MIC, P. aeruginosa (ATCC 9027) [6] | MBC, A. baumannii (ATCC BAA-747) [7] | MIC, A. baumannii (ATCC BAA-747) [7] | MBC, S. aureus (ATCC 6538) [8] | MIC, S. aureus (ATCC 6538) [8] | MBC, E. faecalis (NCTC 12697) [9] | MIC, E. faecalis (NCTC 12697) [9] | MBC, MRSA (NCTC 12493) [10] | MIC, MRSA (NCTC 12493) [10] | HC10 [11] | GM MIC Gram-Positive [12] | also measured
GLLSVLGSLKLIVPKVVPLIAEKL-NH2 [Caerin 1.1-LC PKVVP] | 8 µM | 4 µM | 4 µM | 2 µM | 32 µM | 16 µM | 32 µM | 8 µM | 32 µM | 8 µM | 32 µM | 32 µM | 32 µM | 16 µM | >128 µM | >128 µM | 8 µM | 8 µM | 25.8 µM | 12.14 µM | MBC, E. coli (NCTC 13846) [3]: 4 µM; MIC, E. coli (NCTC 13846) [3]: 2 µM
GLLSVLGSLKLIVPHIIPLIAEKL-NH2 [Caerin 1.1-LC PHIIP] | 8 µM | 4 µM | 8 µM | 4 µM | 16 µM | 16 µM | 16 µM | 8 µM | 64 µM | 32 µM | 8 µM | 8 µM | 8 µM | 4 µM | >128 µM | >128 µM | 4 µM | 4 µM | 2.4 µM | 8 µM | MBC, E. coli (NCTC 13846) [3]: 8 µM; MIC, E. coli (NCTC 13846) [3]: 4 µM
GLLSVLGSLKLIVPGGGPLIAEKL-NH2 [Caerin 1.1-LC PGGGP] | 128 µM | 128 µM | > 128 µM | 128 µM | >128 µM | >128 µM | >128 µM | >128 µM | >128 µM | >128 µM | >128 µM | >128 µM | >128 µM | >128 µM | >128 µM | >128 µM | >128 µM | >128 µM | 256 µM | 256 µM | GM MIC Gram-Negative [13]: 190.21 µM
GLLSVLGSLKKIVPHVVPLIAKKL-NH2 [Caerin 1.1-LC 11K.22K] | 2 µM | 1 µM | 2 µM | 2 µM | 16 µM | 8 µM | 4 µM | 4 µM | 8 µM | 4 µM | 16 µM | 4 µM | 16 µM | 4 µM | 64 µM | 64 µM | 8 µM | 4 µM | 10.3 µM | 3.17 µM | MBC, E. coli (NCTC 13846) [3]: 8 µM; MIC, E. coli (NCTC 13846) [3]: 4 µM; MIC, Ca^2+ [14]: 32 µM; MIC, Control [14]: 4 µM; MIC, FBS [14]: 16 µM; MIC, Fe^3+ [14]: 8 µM; MIC, K^+ [14]: 8 µM; MIC, Mg^2+ [14]: 16 µM; MIC, NH4^+ [14]: 8 µM; MIC, Na^+ [14]: 8 µM
GLLSVLKSLKKIVPHVVPKIAEKL-NH2 [Caerin 1.1-LC 7.11.19K] | 2 µM | 2 µM | 2 µM | 2 µM | 4 µM | 4 µM | 4 µM | 4 µM | 4/4 µM | 4/4 µM | 8 µM | 4 µM | 4 µM | 4 µM | 128 µM | 128 µM | 8 µM | 8 µM | 46.5 µM | 3.28 µM | MBC, E. coli (NCTC 13846) [3]: 4 µM; MIC, E. coli (NCTC 13846) [3]: 4 µM; MIC, Ca^2+ [14]: 64 µM; MIC, Control [14]: 2 µM; MIC, FBS [14]: 16 µM; MIC, Fe^3+ [14]: 2 µM; MIC, K^+ [14]: 2 µM; MIC, Mg^2+ [14]: 4 µM; MIC, NH4^+ [14]: 2 µM; MIC, Na^+ [14]: 2 µM
GLLSVLGSLKKWVPHVVPLIAKKL-NH2 [Caerin 1.1-LC 11K.12K.12W] | 2 µM | 2 µM | 4 µM | 2 µM | 4 µM | 2 µM | 8 µM | 8 µM | 4 µM | 2 µM | 4 µM | 4 µM | 2 µM | 1 µM | 32 µM | 32 µM | 16 µM | 1 µM | 8.5 µM | 2 µM | MBC, E. coli (NCTC 13846) [3]: 4 µM; MIC, E. coli (NCTC 13846) [3]: 2 µM; MIC, Ca^2+ [14]: 32 µM; MIC, Control [14]: 4 µM; MIC, FBS [14]: 8 µM; MIC, Fe^3+ [14]: 4 µM; MIC, K^+ [14]: 4 µM; MIC, Mg^2+ [14]: 8 µM; MIC, NH4^+ [14]: 4 µM; MIC, Na^+ [14]: 4 µM
GLLSVLGSLKLIVPRVVPLIAEKL-NH2 [Caerin 1.1-LC PRVVP] | 8 µM | 2 µM | 4 µM | 2 µM | 16 µM | 8 µM | 32 µM | 8 µM | 8/8 µM | 8/8 µM | 32 µM | 32 µM | 16 µM | 8 µM | >128 µM | >128 µM | 8 µM | 4 µM | 25.8 µM | 5.94 µM | MBC, E. coli (NCTC 13846) [3]: 16 µM; MIC, E. coli (NCTC 13846) [3]: 4 µM
